Laboratory results from ChEMBL document CHEMBL1201862, “PubChem BioAssay data set” (2004).
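Step 1: Grow cells in 96-well plates. Step 2: Expose to compound for 48 hours at 5 concentrations. Step 3: Interpolate endpoints linearly; if unreached, use highest concentration. GI50 is the concentration that inhibits growth by half.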 The source made the active and inactive calls. Rule as the data show it: active = GI50 up to about 1.1 µM and inactive = higher.

What was measured:
Experiment in all cases: NCI-60 cell line screen, 48 h
OVCAR-4 = tested on: OVCAR-4
RXF 393 = tested on: RXF 393
ACHN = tested on: ACHN
DU-145 = tested on: DU-145
SNB-75 = tested on: SNB-75
K562 = tested on: K562
LOX IMVI = tested on: LOX IMVI
NCI-H460 = tested on: NCI-H460
HOP-62 = tested on: HOP-62
MDA-MB-435 = tested on: MDA-MB-435
MDA-N = tested on: MDA-N
T47D = tested on: T47D
HCT-116 = tested on: HCT-116
HCC 2998 = tested on: HCC 2998
RPMI-8226 = tested on: RPMI-8226
SK-OV-3 = tested on: SK-OV-3
SF-268 = tested on: SF-268
OVCAR-5 = tested on: OVCAR-5
OVCAR-3 = tested on: OVCAR-3
SF-539 = tested on: SF-539

Measured: GI50

O=C(O)CSc1ccc([N+](=O)[O-])cc1[N+](=O)[O-]
inactive: OVCAR-4 > 100 µM | RXF 393 > 100 µM | ACHN > 100 µM | DU-145 > 100 µM | SNB-75 > 100 µM | K562 > 100 µM | LOX IMVI > 100 µM | NCI-H460 > 100 µM | HOP-62 > 100 µM | MDA-MB-435 > 100 µM | MDA-N > 100 µM | T47D > 100 µM | HCT-116 > 100 µM | HCC 2998 > 100 µM | RPMI-8226 > 100 µM | SK-OV-3 > 100 µM | SF-268 > 100 µM | OVCAR-5 > 100 µM | OVCAR-3 > 100 µM

Cc1cccc(CNc2[nH]cnc3nncc2-3)c1
inactive: OVCAR-4 87.7 µM | RXF 393 > 100 µM | ACHN 75.7 µM | DU-145 > 100 µM | SNB-75 53.5 µM | K562 47.1 µM | LOX IMVI > 100 µM | NCI-H460 > 100 µM | HOP-62 > 100 µM | MDA-MB-435 > 100 µM | MDA-N > 100 µM | T47D 78.3 µM | HCT-116 > 100 µM | SF-539 > 100 µM | RPMI-8226 44.3 µM | SK-OV-3 > 100 µM | SF-268 > 100 µM | OVCAR-5 40.4 µM | OVCAR-3 > 100 µM

Cn1c(=O)c2nc(COCc3nc4c(=O)n(C)c(=O)n(C)c4[nH]3)[nH]c2n(C)c1=O
inactive: OVCAR-4 > 100 µM | RXF 393 > 100 µM | ACHN > 100 µM | DU-145 > 100 µM | SNB-75 > 100 µM | K562 > 100 µM | LOX IMVI > 100 µM | NCI-H460 > 100 µM | HOP-62 > 100 µM | MDA-MB-435 > 100 µM | MDA-N > 100 µM | T47D > 100 µM | HCT-116 > 100 µM | SF-539 > 100 µM | RPMI-8226 > 100 µM | SK-OV-3 > 100 µM | SF-268 > 100 µM | OVCAR-5 > 100 µM | OVCAR-3 > 100 µM

CC1(C)C=[N+]([O-])C(C)(C)N1O
inactive: OVCAR-4 > 10 µM | RXF 393 > 10 µM | ACHN > 10 µM | DU-145 > 10 µM | K562 > 10 µM | NCI-H460 > 10 µM | HOP-62 > 10 µM | MDA-MB-435 > 10 µM | MDA-N > 10 µM | T47D > 10 µM | HCT-116 > 10 µM | HCC 2998 > 10 µM | RPMI-8226 > 10 µM | SF-268 > 10 µM | OVCAR-5 > 10 µM | OVCAR-3 > 10 µM

O=C1CC(Br)c2c(Br)sc(Br)c21 (configuration not stated)
inactive: OVCAR-4 17.3 µM | RXF 393 18.3 µM | ACHN 17.7 µM | DU-145 20.7 µM | SNB-75 23.1 µM | K562 7.73 µM | LOX IMVI 14.3 µM | NCI-H460 17.3 µM | HOP-62 20.9 µM | MDA-MB-435 20 µM | MDA-N 15.5 µM | T47D 17.6 µM | HCT-116 13.6 µM | SF-539 24.5 µM | RPMI-8226 8.04 µM | SK-OV-3 28.8 µM | SF-268 23.9 µM | OVCAR-5 17.9 µM | OVCAR-3 18.9 µM

CC(=O)OCC1OC(NC(=S)CCSc2nc3ccccc3c(=O)n2-c2ccccc2)C(OC(C)=O)C(OC(C)=O)C1OC(C)=O (configuration not stated)
inactive: RXF 393 18 µM | ACHN 83.4 µM | DU-145 > 100 µM | SNB-75 22 µM | K562 34.2 µM | LOX IMVI 79.6 µM | NCI-H460 > 100 µM | HOP-62 28.3 µM | MDA-MB-435 52 µM | MDA-N 44.4 µM | T47D 30.5 µM | HCT-116 73.5 µM | SF-539 1.64 µM | HCC 2998 39.3 µM | RPMI-8226 > 100 µM | SK-OV-3 46.9 µM | SF-268 > 100 µM | OVCAR-5 22.6 µM | OVCAR-3 40.4 µM

CC1=NN=C(N)N/C1=C/C(Sc1ccc(Cl)cc1)c1cccs1 (configuration not stated)
inactive: OVCAR-4 16.5 µM | RXF 393 17.4 µM | ACHN 12.9 µM | DU-145 23.1 µM | K562 13.9 µM | LOX IMVI 16.7 µM | NCI-H460 13.6 µM | HOP-62 12.5 µM | MDA-MB-435 13.3 µM | MDA-N 16.1 µM | T47D 22 µM | HCT-116 13.6 µM | HCC 2998 12.4 µM | RPMI-8226 12.2 µM | SK-OV-3 12 µM | SF-268 10.6 µM | OVCAR-5 18.5 µM

COc1cc(/C=N/NC(=O)c2c(Cl)c(Cl)c(Cl)c(Cl)c2-c2nc3cc(C(=O)c4ccccc4)ccc3[nH]2)ccc1O
inactive: OVCAR-4 49.1 µM | RXF 393 21.6 µM | ACHN 60.7 µM | DU-145 73.8 µM | SNB-75 42.1 µM | K562 15.8 µM | LOX IMVI 50.9 µM | HOP-62 38.5 µM | MDA-MB-435 13.8 µM | MDA-N 16.1 µM | T47D 22.6 µM | HCT-116 36.1 µM | SF-539 24.9 µM | RPMI-8226 30.8 µM | SK-OV-3 56.4 µM | SF-268 36.9 µM | OVCAR-5 > 100 µM | OVCAR-3 40 µM

O=c1[nH]c(NCc2ccncc2)nc2[nH]cnc12
inactive: OVCAR-4 > 100 µM | RXF 393 > 100 µM | ACHN > 100 µM | DU-145 > 100 µM | SNB-75 > 100 µM | K562 > 100 µM | LOX IMVI > 100 µM | NCI-H460 > 100 µM | HOP-62 > 100 µM | MDA-MB-435 > 100 µM | MDA-N > 100 µM | T47D > 100 µM | HCT-116 > 100 µM | HCC 2998 > 100 µM | RPMI-8226 > 100 µM | SK-OV-3 > 100 µM | SF-268 > 100 µM | OVCAR-5 > 100 µM | OVCAR-3 > 100 µM

COC(=O)[C@@H]1CN(C(=O)c2ccccc2)C(=O)N1
inactive: OVCAR-4 > 100 µM | RXF 393 > 100 µM | ACHN > 100 µM | DU-145 > 100 µM | SNB-75 > 100 µM | K562 > 100 µM | LOX IMVI > 100 µM | NCI-H460 > 100 µM | HOP-62 > 100 µM | MDA-MB-435 > 100 µM | MDA-N > 100 µM | T47D > 100 µM | HCT-116 > 100 µM | SF-539 > 100 µM | RPMI-8226 > 100 µM | SF-268 > 100 µM | OVCAR-5 > 100 µM | OVCAR-3 > 100 µM

NC(=O)C1=C(c2ccccc2)c2ccccc2C1=O
inactive: OVCAR-4 18.5 µM | RXF 393 19.7 µM | ACHN 11.4 µM | DU-145 17.1 µM | SNB-75 19.7 µM | K562 38.1 µM | LOX IMVI 7.98 µM | NCI-H460 15.9 µM | HOP-62 14.9 µM | MDA-MB-435 26.1 µM | MDA-N 19.5 µM | T47D 19.1 µM | HCT-116 16.9 µM | HCC 2998 15.8 µM | RPMI-8226 14.6 µM | SK-OV-3 18.3 µM | SF-268 17.8 µM | OVCAR-5 18.6 µM | OVCAR-3 11.8 µM
